Target: T1, human 5-HT3-A(short) together with 5-HT3-C (Homo sapiens, UniProt P46098)
T1 construct: Characterization of the Function of Protein Encoded by p5HT3CR in Xenopus oocvtes; expressed in transfected cells; host or cells: Xenopus laevis oocytes co-injected with cRNAs
T1 sequence (P46098 24-478): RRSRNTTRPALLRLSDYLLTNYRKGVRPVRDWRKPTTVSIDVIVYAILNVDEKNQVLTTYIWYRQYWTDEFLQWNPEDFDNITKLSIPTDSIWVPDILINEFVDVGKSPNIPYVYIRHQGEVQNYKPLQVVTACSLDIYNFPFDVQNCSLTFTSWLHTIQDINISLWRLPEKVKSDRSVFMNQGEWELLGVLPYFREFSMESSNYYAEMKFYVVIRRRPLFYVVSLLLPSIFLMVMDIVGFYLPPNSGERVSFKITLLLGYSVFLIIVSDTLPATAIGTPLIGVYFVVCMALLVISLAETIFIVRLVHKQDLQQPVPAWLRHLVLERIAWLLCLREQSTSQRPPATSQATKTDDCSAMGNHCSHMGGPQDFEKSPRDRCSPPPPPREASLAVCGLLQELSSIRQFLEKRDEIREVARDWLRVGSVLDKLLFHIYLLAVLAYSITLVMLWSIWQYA
Experiment: Two-electrode voltage clamp, oocytes co-injected with 5-HT3-A(short) and 5-HT3-C
Format: cell-based
Procedure: Characterization of the Function of Protein Encoded by p5HT3CR in Xenopus oocvtes Xenopus laevis oocytes were prepared and injected using standard methods previously described and known in the art (Fraser et al., 1993). Ovarian lobes from adult female Xenopus laevis (Nasco, Fort Atkinson, Wis.) were teased apart, rinsed several times in nominally Ca-free saline containing (in mM): NaCl 82.5, KCl 2.5, MgCl2 1, HEPES 5, adjusted to pH 7.0 with NaOH(OR-2), and gently shaken in OR-2 containing 0.2% collagenase Type 1 (ICN Biomedicals, Aurora, Ohio) for 2–5 hours. When approximately 50% of the follicular layers were removed, Stage V and VI oocytes were selected and rinsed in media consisting of 75% OR-2 and 25% ND-96. The ND-96 contained (in mM): NaCl 100, KCl 2, MgCl2 1, CaCl2 1.8, HEPES 5, Na pyruvate 2.5, gentamicin (50 ug/ml), adjusted to pH 7.0 with NaOH. […] For in vitro transcription, pGEM HE (Liman et al., 1992) containing human 5-HT3-A (Genbank D49394) or 5-HT3-C cDNA was linearized with NheI and transcribed with T7 RNA polymerase (Stratagene) in the presence of the cap analog m7G(5′)ppp(5′)G. The synthesized cRNA was purified with a Sephadex G-50 spin column. […] Control oocytes were injected with 50 nl of water. Oocytes were incubated for 2–14 days in ND-96 before analysis for expression of the human 5-HT3-C. Incubations and collagenase digestion were carried out at room temperature. Injected oocytes were maintained in 48 well cell culture clusters (Costar, Cambridge, Mass.) at 18° C. Whole cell agonist-induced currents were measured 1–14 days after injection with a conventional two-electrode voltage clamp (GeneClamp500, Axon Instruments, Foster City, Calif.) using standard methods previously described and known in the art (Dascal, 1987). The microelectrodes were filled with 3 M KCl, which had resistances of 1 and 2 MΩ. Cells were continuously perfused with ND96 at 10 ml/min at room temperature unless indicated. Membrane voltage was clamped at −70 mV unless indicated.
Functional expression of human serotonin 5-HT3 receptor modifier subunit 5-HT3-C together with the human short form of the 5-HT3-A receptor (Genbank accession # D49394) in Xenopus oocytes is shown in FIGS. 4 and 5. Agonist was applied during the time indicated by the horizontal bar above the record. […] As a positive control for translation and surface expression, all oocytes were co-injected with a Shaker potassium channel N-terminal deletion mutant that lacks fast inactivation. […] Oocytes were continuously perfused with Ba^2+ containing ND96 at a rate of 10 ml/min at room temperature. Time scale bar: 25 sec. Similar results were obtained in experiments in which oocytes were bathed in Ca^2+ containing ND96.

peak response to 5-HT (10 μM 5-HT, 2-fold more 5-HT3-C cRNA (0.67 ng), control = 5-HT3-A homomeric): about 10 % of control
effect of 5-HT3-C on 5-HT response (1:1 ratio, n=6): little effect
5-HT response diminished (1.8×fold 5-HT3-C to 5-HT3-A cRNA concentration, n=3): about 20%
peak currents to 5-HT (5-HT3-C and 5-HT3-A(short) at a ratio of 2:1, n=20): −0.028+/−0.007 nA
sensitivity of oocytes to 5-HT (5-HT3-C:5-HT3-A(short) 10:1): essentially insensitive
Responses to 5-HT (10 LM 5-HT, 5-HT3-C:5-HT3-A(short) 10:1 (3.35 ng : 0.33 ng), n=6): −0.010+/−0.008 nA
Compound: NCCc1c[nH]c2ccc(O)cc12 [5-HT, 5-hydroxytryptamine]
